From publication PMC9500072, “Topical application of an irreversible small molecule inhibitor of lysyl oxidases ameliorates skin scarring and fibrosis” (Nature Communications, 2022)
Read-outs that look alike come from different tables or passages of the source.

Tests used:
Format in all cases: biochemical
[1] = biological target: T1, Dog Recombinant LOXL2 (Canis lupus familiaris, UniProt A0A8I3P9Y5); assay: Amine oxidase inhibition profile, dog LOXL2
T1 construct: made in house; host or cells: HEK-293 clones (provided by Dr. Fernando Rodríguez Pascual)
T1 sequence (A0A8I3P9Y5 1-777): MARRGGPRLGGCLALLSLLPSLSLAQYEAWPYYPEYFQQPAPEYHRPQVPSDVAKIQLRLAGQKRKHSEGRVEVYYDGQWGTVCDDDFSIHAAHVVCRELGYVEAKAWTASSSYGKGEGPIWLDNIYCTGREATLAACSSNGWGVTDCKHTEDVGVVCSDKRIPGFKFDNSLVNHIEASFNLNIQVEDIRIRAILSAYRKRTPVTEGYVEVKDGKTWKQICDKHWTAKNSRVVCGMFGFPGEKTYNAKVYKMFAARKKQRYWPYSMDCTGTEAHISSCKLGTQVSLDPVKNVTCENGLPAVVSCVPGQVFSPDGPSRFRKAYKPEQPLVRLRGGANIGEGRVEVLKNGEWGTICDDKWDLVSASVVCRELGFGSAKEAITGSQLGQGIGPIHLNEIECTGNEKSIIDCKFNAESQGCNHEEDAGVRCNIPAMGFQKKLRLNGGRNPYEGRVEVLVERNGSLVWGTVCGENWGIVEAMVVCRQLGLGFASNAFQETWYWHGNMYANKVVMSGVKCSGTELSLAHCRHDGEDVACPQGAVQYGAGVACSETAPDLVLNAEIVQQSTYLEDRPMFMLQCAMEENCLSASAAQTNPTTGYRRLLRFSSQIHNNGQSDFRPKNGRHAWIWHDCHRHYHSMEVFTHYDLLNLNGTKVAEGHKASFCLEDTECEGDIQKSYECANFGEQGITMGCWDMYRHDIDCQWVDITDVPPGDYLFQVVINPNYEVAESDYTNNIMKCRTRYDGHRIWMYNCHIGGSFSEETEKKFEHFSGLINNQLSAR

[2] = biological target: T2, DAO (Homo sapiens, UniProt P19801); assay: Amine oxidase inhibition profile, DAO
T2 sequence (P19801 20-751): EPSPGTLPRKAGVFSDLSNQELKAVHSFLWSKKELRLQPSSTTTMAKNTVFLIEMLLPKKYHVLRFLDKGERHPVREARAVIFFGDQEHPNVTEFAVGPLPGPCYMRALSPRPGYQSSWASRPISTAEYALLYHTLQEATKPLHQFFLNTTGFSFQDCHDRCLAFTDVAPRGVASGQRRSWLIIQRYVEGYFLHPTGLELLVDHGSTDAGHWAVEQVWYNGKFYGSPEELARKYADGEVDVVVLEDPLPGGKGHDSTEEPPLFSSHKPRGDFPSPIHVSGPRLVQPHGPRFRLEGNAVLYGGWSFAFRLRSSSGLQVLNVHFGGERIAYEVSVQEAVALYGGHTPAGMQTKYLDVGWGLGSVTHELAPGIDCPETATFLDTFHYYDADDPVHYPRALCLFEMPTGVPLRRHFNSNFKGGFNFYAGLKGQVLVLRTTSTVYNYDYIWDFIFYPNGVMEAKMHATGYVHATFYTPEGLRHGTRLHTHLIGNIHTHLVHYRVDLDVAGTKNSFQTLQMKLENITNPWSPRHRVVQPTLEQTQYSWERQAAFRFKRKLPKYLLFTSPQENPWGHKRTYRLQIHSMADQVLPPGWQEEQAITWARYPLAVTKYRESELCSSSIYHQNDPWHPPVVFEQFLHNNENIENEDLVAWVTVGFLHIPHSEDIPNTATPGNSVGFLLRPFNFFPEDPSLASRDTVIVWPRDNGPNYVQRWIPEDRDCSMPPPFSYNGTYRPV
Description: (§1) Supplem entary Materi als:
(§2) Supplementary Table S1: Amine oxidase inhibition profile of PXS -4787, PXS-6302 and
(§3) Supplementary Table S2: Perm eability profile of PXS -6302.

[3] = biological target: T3, Human Recombinant MAO-B (Homo sapiens, UniProt P27338); assay: Amine oxidase inhibition profile, MAO-B
T3 sequence (P27338 1-520): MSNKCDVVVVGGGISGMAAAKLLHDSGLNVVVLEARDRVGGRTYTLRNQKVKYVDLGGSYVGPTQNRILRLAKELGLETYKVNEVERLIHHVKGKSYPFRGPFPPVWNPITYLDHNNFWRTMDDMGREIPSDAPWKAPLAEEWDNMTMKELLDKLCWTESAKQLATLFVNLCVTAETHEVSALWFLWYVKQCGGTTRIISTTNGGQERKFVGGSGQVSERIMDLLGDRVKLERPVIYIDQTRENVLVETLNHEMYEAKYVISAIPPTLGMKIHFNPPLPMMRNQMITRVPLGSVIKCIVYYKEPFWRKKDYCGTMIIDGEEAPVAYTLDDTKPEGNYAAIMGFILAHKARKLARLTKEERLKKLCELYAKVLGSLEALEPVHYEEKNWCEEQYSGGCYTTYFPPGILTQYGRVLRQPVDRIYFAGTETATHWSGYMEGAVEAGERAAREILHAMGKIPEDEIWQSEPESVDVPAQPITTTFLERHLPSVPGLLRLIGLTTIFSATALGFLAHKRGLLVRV
Description: as §1, §2, §3

[4] = read-out: Recombinant MAO-B IC50

Row | SMILES | Dog Recombinant LOXL2 pIC50±SD [1] | IC50 [1] [µM] | Recombinant DAO pIC50 [2] | IC50 ([2]; read-out: Recombinant DAO IC50) [µM] | Recombinant MAO-B pIC50 [3] | IC50 [3, 4] [µM] | IC50 [2] [µM] | IC50 [3] [µM]
1 | N#CCCN [BAPN, β-aminoproprionitrile, reference compound] | 6.3 ± 0.1 | 0.48 | < 4.5 | > 30 | < 4 | > 100 |  | 
2 | NC/C=C(\F)CS(=O)(=O)c1ccccc1 [PXS-4787] |  | 0.62 |  | > 100 |  | > 100 |  | 
3 | NC/C=C(\F)C(F)(F)S(=O)(=O)c1ccccc1 [PXS-6302] |  | 0.34 |  |  |  |  | > 30 | > 30
